pIC50: −log10 of the molar value. Converted amounts (≈) assume the structure as drawn.
Experiments:
[1] = tested on: S. pneumo; experiment: MIC S. pneumo (standard MIC assay modified by inclusion of cyclodextrin); assay type: cell-based; conditions: Streptococcus pneumoniae
Protocol: (§1) Compounds of the present invention were assayed for antibacterial activity against a range of pathogenic organisms (strains of S aureus, S pneumoniae, E faecalis, H influenzae and M catarrhalis) in a standard MIC assay modified by the inclusion of cyclodextrin, to assist with solubility.

[2] = tested on: S. aureus, S. pneumoniae, and E. faecalis; experiment: MIC against some strains of gram positive pathogens; assay type: cell-based
Protocol: as §1

[3] = tested on: M catarrhalis and H. influenzae; experiment: MIC against some strains of gram negative pathogens; assay type: cell-based; conditions: Haemophilus influenzae
Protocol: as §1

[4] = tested on: S. aureus; experiment: MIC S. aureus (standard MIC assay modified by inclusion of cyclodextrin); assay type: cell-based; conditions: Staphylococcus aureus
Protocol: as §1

[5] = tested on: H. influenzae; experiment: MIC H. influenzae (standard MIC assay modified by inclusion of cyclodextrin); assay type: cell-based; conditions: Haemophilus influenzae
Protocol: as §1

[6] = molecular target: T1, recombinant H. influenzae MRS (Haemophilus influenzae, UniProt P43828); experiment: Enzyme Inhibition (H. influenzae MRS) aminoacylation assay; assay type: biochemical; conditions: read-out: IC50 against H. influenzae MRS
T1 construct: made in house
T1 sequence (P43828 whole entry): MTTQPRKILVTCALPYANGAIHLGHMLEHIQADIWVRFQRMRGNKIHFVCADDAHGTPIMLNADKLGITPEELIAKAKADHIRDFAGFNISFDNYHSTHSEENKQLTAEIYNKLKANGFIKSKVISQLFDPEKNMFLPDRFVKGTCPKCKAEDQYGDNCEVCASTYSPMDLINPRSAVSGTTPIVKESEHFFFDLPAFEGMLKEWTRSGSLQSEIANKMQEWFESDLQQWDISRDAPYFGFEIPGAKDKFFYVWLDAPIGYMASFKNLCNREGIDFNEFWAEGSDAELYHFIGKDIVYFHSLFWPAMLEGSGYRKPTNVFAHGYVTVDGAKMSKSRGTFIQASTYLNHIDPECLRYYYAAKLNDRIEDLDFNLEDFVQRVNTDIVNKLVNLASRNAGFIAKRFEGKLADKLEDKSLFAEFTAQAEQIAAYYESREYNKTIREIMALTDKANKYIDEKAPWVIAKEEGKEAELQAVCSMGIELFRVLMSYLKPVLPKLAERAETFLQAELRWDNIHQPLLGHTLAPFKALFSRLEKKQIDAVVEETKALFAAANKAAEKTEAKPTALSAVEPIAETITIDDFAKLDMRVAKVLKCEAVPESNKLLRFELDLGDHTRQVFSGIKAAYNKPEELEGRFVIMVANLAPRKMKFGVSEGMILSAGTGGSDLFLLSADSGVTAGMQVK
Protocol: 2. Enzyme Inhibition (H. influenzae MRS)—aminoacylation assay
Compounds of the present invention may be assayed for their ability to inhibit the enzyme methionyl tRNA synthetase (MRS), using recombinant H. influenzae MRS(R. D. Fleischmann et al., Science, 269, 496–512, 1995), as follows:
The reaction is started by adding 20 μl appropriately diluted pure enzyme (pre-incubated with inhibitor) to 25 μl reaction mix for 10 min at room temperature. The reaction is terminated by the addition of 150 μl 167 mM sodium citrate, pH 2.15 containing phosphodiesterase (PDE) SPA beads (0.833 mg/ml). The binding of the radiolabelled product to the bead brings the isotope into close enough proximity to allow radiation from the tritium to excite the scintillant within the bead. Any unbound radiolabel is not close enough to the scintillant to allow this energy transfer, so no signal is generated. Following termination of the reaction, plates are spun at 2500 rpm for 5 min in a Mistral 3000E plate centrifuge (or alternatively allowed to stand for 1 hour). The assay is conducted in 96-well Optiplates (Packard). Plates are counted on a TopCount. (Packard 96 well counter).
Mixed E. coli MRE 600 tRNA and ATP were purchased from Boehringer-Mannheim, L-[methyl-^3H]methionine and phosphodiesterase scintillation proximity (SPA) beads from Amersham Pharmacia Biotech and other reagents from Sigma.

MIC [1] [µg/mL]	MIC [2] [µg/mL]	MIC [3] [µg/mL]	MIC [4] [µg/mL]	MIC [5] [µg/mL]	pIC50 [6]	Structure (SMILES)
0.25 (≈ 0.539 µM)	0.06 to 0.5 (≈ 0.129 to 1.08 µM)	0.13 to 8 (≈ 0.28 to 17.2 µM)	0.13 (≈ 0.28 µM)	8 (≈ 17.2 µM)	≥ 6.70	Cc1c(CNCCCNc2nc3cscc3[nH]2)sc(Br)c1Br [Example 18, N-(4,5-Dibromo-3-methylthiophen-2-ylmethyl)-N′-(1H-thieno[3,4-d]imidazol-2-yl)propane-1,3-diamine]
0.25 (≈ 0.582 µM)	0.06 to 0.5 (≈ 0.14 to 1.16 µM)	0.13 to 8 (≈ 0.303 to 18.6 µM)	0.06 (≈ 0.14 µM)	8 (≈ 18.6 µM)	≥ 6.70	C=C(F)c1sc(CNCCCNc2nc3cscc3[nH]2)c(C)c1Br [Example 21, N-(4-bromo-5-(1-fluorovinyl)-3-methylthiophen-2-ylmethyl)-N′-(1H-thieno[3,4-d]imidazol-2-yl)propane-1,3-diamine]

— US7030137B2, “Substituted thiophenes with antibacterial activity” (Replidyne, Inc., priority 2003, dated 2006)
